In patent publication US20250188084A1, “COMPOUNDS AND METHODS FOR MODULATING CDK9 ACTIVITY” (KRONOS BIO, INC., priority 2020, published 2025):

biological target: T1, CDK9 (Homo sapiens, UniProt P50750); test: CDK9 degradation by HiBit assay, NCIH211 cells; type: cell-based; settings: NCIH211 cells with endogenously tagged N-terminal CDK9-HiBit, 24 hours incubation; read-out: HiBit-NCIH211.2 DC50
T1 construct: NCIH211 cells with endogenously tagged N-terminal CDK9-HiBit; endogenous in cells; host or cells: NCIH211 cells (endogenous CDK9 locus tagged with HiBit)
Procedure: (§1) Exemplary compounds of the invention were tested for degradation of CDK9. The compounds were tested in 10-dose DC50 duplicate mode with a 3-fold serial dilution starting at 10 μM by HiBit assay (Promega, Inc) as a direct measurement of CDK9 presence, with incubation time of 24 hours using either NCIH211 cells with endogenously tagged N-terminal CDK9-HiBit or NCIH1048 cells with endogenously tagged N-terminal CDK9-HiBit. A control compound (THAL-SNS-032, CAS 2139287-33-3) was tested in 10-dose DC50 mode with 3-fold serial dilution starting at 10 μM. Data was normalized to positive (medium only) and negative (cells with no treatment) controls and curve fits were analyzed with CDK9 as % response vs. log [compound concentration] using a 4-parameter logistic model by GraphPad software. For Table 2: A is <100, B is <1000 C is <10,000, D is >10,000 and ND is Not Determined.

T1 sequence (P50750 whole entry): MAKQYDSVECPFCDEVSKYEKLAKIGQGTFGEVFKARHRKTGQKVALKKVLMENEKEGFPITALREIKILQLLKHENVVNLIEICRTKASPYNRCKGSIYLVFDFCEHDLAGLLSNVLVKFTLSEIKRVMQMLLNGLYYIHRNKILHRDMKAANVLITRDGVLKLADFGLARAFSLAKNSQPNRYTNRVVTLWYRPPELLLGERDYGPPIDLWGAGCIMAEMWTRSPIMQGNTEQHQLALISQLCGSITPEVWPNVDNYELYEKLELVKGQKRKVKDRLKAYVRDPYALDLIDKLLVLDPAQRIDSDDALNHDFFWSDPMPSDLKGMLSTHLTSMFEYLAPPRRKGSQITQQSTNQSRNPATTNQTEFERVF
T1 sequence (O60563 whole entry partner): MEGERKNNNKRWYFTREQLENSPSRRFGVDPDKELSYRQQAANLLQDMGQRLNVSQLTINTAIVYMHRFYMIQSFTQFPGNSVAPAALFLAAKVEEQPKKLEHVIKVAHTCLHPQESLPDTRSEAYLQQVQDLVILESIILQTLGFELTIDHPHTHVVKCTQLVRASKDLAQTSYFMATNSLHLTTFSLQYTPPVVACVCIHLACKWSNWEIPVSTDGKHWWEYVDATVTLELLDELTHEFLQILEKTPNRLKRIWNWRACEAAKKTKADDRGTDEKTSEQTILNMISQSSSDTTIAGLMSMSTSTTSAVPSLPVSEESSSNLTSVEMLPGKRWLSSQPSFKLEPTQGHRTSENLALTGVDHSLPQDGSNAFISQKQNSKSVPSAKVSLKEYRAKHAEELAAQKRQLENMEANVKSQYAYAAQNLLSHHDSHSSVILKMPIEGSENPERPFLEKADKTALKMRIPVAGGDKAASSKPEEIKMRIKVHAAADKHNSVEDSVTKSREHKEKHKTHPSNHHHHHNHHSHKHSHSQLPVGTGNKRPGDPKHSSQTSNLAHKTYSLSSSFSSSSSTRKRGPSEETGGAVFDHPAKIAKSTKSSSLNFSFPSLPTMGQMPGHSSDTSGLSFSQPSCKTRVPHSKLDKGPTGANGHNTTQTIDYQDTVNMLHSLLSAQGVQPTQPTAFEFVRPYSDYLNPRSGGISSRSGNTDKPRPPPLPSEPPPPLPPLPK

SMILES	DC50
CCC(CC)c1cc(N[C@H]2CC[C@H](NCC(=O)NCCOCCOCCOCCNc3cccc4c3C(=O)N(C3CCC(=O)NC3=O)C4=O)C2)n2nccc2n1 (stereo partly drawn) [Compound 5.0, N-[2-[2-[2-[2-[[2-(2,6-dioxo-3-piperidyl)-1,3-dioxo-isoindolin-4-yl]amino]ethoxy]ethoxy]ethoxy]ethyl]-2-[[(1S,3S)-3-[[5-(1-ethylpropyl)pyrazolo[1,5-a]pyrimidin-7-yl]amino]cyclopentyl]amino]acetamide]	< 10 µM
CCC(CC)c1cc(N[C@H]2CC[C@H](NCC(=O)NCCOCCOCCOCCNc3cccc4c3C(=O)N(C3CCC(=O)NC3=O)C4=O)C2)n2ncc(Cl)c2n1 (stereo partly drawn) [Compound 6.0, N-[2-[2-[2-[2-[[2-(2,6-dioxo-3-piperidyl)-1,3-dioxo-isoindolin-4-yl]amino]ethoxy]ethoxy]ethoxy]ethyl]-2-[[(1S,3S)-3-[[3-chloro-5-(1-ethylpropyl)pyrazolo[1,5-a]pyrimidin-7-yl]amino]cyclopentyl]amino]acetamide]	< 1 µM
CCC(CC)c1cc(N[C@H]2CC[C@H](NCCN3CCN(CCNc4cccc5c4C(=O)N(C4CCC(=O)NC4=O)C5=O)CC3)C2)n2nccc2n1 (stereo partly drawn) [Compound 19.0, 2-(2,6-dioxo-3-piperidyl)-4-[2-[4-[2-[[(1S,3S)-3-[[5-(1-ethylpropyl)pyrazolo[1,5-a]pyrimidin-7-yl]amino]cyclopentyl]amino]ethyl]piperazin-1-yl]ethylamino]isoindoline-1,3-dione]	< 10 µM
CCC(CC)c1cc(N[C@H]2CC[C@H](NCC(=O)NCCCn3cc(CCOCCNc4cccc5c4C(=O)N(C4CCC(=O)NC4=O)C5=O)nn3)C2)n2nccc2n1 (some centres unmarked) [Compound 20.0]	> 10 µM
C/C=C(\CC)c1cc(N[C@H]2CC[C@H](NCC(=O)N3CCN(CCCNc4cccc5c4C(=O)N(C4CCC(=O)NC4=O)C5=O)CC3)C2)n2nccc2n1 (stereo partly drawn) [Compound 21.0, 2-(2,6-dioxo-3-piperidyl)-4-[3-[4-[2-[[(1S,3S)-3-[[5-[(E)-1-ethylprop-1-enyl]pyrazolo[1,5-a]pyrimidin-7-yl]amino]cyclopentyl]amino]acetyl]piperazin-1-yl]propylamino]isoindoline-1,3-dione]	< 0.1 µM
CCC(CC)c1cc(N[C@H]2CC[C@H](NCC(=O)NCCCc3cn(CCOCCNc4cccc5c4C(=O)N(C4CCC(=O)NC4=O)C5=O)nn3)C2)n2nccc2n1 (some centres unmarked) [Compound 22.0]	> 10 µM
CCC(CC)c1cc(N[C@H]2CC[C@H](NCC(=O)NCCCc3cn(CCOCCNc4cccc5c4C(=O)N(C4CCC(=O)NC4=O)C5=O)nn3)C2)n2ncc(Cl)c2n1 (some centres unmarked) [Compound 23.0]	< 10 µM
CCC(CC)c1cc(N[C@H]2CC[C@H](NCC(=O)NCCCn3cc(CCOCCNc4cccc5c4C(=O)N(C4CCC(=O)NC4=O)C5=O)nn3)C2)n2ncc(Cl)c2n1 (some centres unmarked) [Compound 24.0]	< 1 µM
CCC(CC)c1cc(N[C@H]2CC[C@H](NCC(=O)NCCCc3cn(CCOCCOCCOCCOCC(=O)N[C@H](C(=O)N4C[C@H](O)C[C@H]4C(=O)NCc4ccc(-c5scnc5C)cc4)C(C)(C)C)nn3)C2)n2ncc(Cl)c2n1 [Compound 41.0]	> 10 µM
CCC(CC)c1cc(N[C@H]2CC[C@H](NCC(=O)N3CCN(CCCCNc4cccc5c4C(=O)N(C4CCC(=O)NC4=O)C5=O)CC3)C2)n2ncc(Cl)c2n1 (some centres unmarked) [Compound 45.0]	< 0.1 µM
CCC(CC)c1cc(N[C@H]2CC[C@H](NCC(=O)N3CCN(CCCCNc4cccc5c4C(=O)N(C4CCC(=O)NC4=O)C5=O)CC3)C2)n2nccc2n1 (some centres unmarked) [Compound 46.0]	< 1 µM
CCC(CC)c1cc(N[C@H]2CC[C@H](NCC(=O)N3CCN(CCNc4cccc5c4C(=O)N(C4CCC(=O)NC4=O)C5=O)CC3)C2)n2nccc2n1 (some centres unmarked) [Compound 47.0]	< 1 µM
CCC(CC)c1cc(N[C@H]2CC[C@H](NCC(=O)N3CCN(CCNc4cccc5c4C(=O)N(C4CCC(=O)NC4=O)C5=O)CC3)C2)n2ncc(Cl)c2n1 (some centres unmarked) [Compound 49.0]	< 0.1 µM

Second part, the molecule after the results:

DC50	SMILES
> 10 µM	CCC(CC)c1cc(N[C@H]2CC[C@H](NCCN3CCN(CCOCC(=O)N[C@H](C(=O)N4C[C@H](O)C[C@H]4C(=O)NCc4ccc(-c5scnc5C)cc4)C(C)(C)C)CC3)C2)n2nccc2n1 [Compound 18.0, (2S,4R)-1-[(2S)-2-[[2-[2-[4-[2-[[(1S,3S)-3-[[5-(1-ethylpropyl)pyrazolo[1,5-a]pyrimidin-7-yl]amino]cyclopentyl]amino]ethyl]piperazin-1-yl]ethoxy]acetyl]amino]-3,3-dimethyl-butanoyl]-4-hydroxy-N-[[4-(4-methylthiazol-5-yl)phenyl]methyl]pyrrolidine-2-carboxamide]
> 10 µM	CCC(CC)c1cc(N[C@H]2CC[C@H](NCC(=O)NCc3cn(CCOCC(=O)N[C@H](C(=O)N4C[C@H](O)C[C@H]4C(=O)NCc4ccc(-c5scnc5C)cc4)C(C)(C)C)nn3)C2)n2nccc2n1 [Compound 25.0]
> 10 µM	CCC(CC)c1cc(N[C@H]2CC[C@H](NCC(=O)NCc3cn(CCOCCOCC(=O)N[C@H](C(=O)N4C[C@H](O)C[C@H]4C(=O)NCc4ccc(-c5scnc5C)cc4)C(C)(C)C)nn3)C2)n2nccc2n1 [Compound 26.0]
> 10 µM	CCC(CC)c1cc(N[C@H]2CC[C@H](NCC(=O)NCc3cn(CCOCCOCCOCC(=O)N[C@H](C(=O)N4C[C@H](O)C[C@H]4C(=O)NCc4ccc(-c5scnc5C)cc4)C(C)(C)C)nn3)C2)n2nccc2n1 [Compound 27.0]
> 10 µM	CCC(CC)c1cc(N[C@H]2CC[C@H](NCC(=O)NCc3cn(CCOCCOCCOCCOCC(=O)N[C@H](C(=O)N4C[C@H](O)C[C@H]4C(=O)NCc4ccc(-c5scnc5C)cc4)C(C)(C)C)nn3)C2)n2nccc2n1 [Compound 28.0]
> 10 µM	CCC(CC)c1cc(N[C@H]2CC[C@H](NCC(=O)NCc3cn(CCOCCOc4cc(-c5scnc5C)ccc4CNC(=O)[C@@H]4C[C@@H](O)CN4C(=O)[C@H](C(C)C)N4Cc5ccccc5C4=O)nn3)C2)n2nccc2n1 [Compound 29.0]
> 10 µM	CCC(CC)c1cc(N[C@H]2CC[C@H](NCC(=O)NCc3cn(CCOCCOCCOCCOc4cc(-c5scnc5C)ccc4CNC(=O)[C@@H]4C[C@@H](O)CN4C(=O)[C@H](C(C)C)N4Cc5ccccc5C4=O)nn3)C2)n2nccc2n1 [Compound 31.0]
> 10 µM	CCC(CC)c1cc(N[C@H]2CC[C@H](NCC(=O)NCc3cn(CCOCCOCCOCCOCCOc4cc(-c5scnc5C)ccc4CNC(=O)[C@@H]4C[C@@H](O)CN4C(=O)[C@H](C(C)C)N4Cc5ccccc5C4=O)nn3)C2)n2nccc2n1 [Compound 32.0]
> 10 µM	CCC(CC)c1cc(N[C@H]2CC[C@H](NCc3cn(CCOCC(=O)N[C@H](C(=O)N4C[C@H](O)C[C@H]4C(=O)NCc4ccc(-c5scnc5C)cc4)C(C)(C)C)nn3)C2)n2nccc2n1 [Compound 33.0]
> 10 µM	CCC(CC)c1cc(N[C@H]2CC[C@H](NCc3cn(CCOCCOCC(=O)N[C@H](C(=O)N4C[C@H](O)C[C@H]4C(=O)NCc4ccc(-c5scnc5C)cc4)C(C)(C)C)nn3)C2)n2nccc2n1 [Compound 34.0]
> 10 µM	CCC(CC)c1cc(N[C@H]2CC[C@H](NCc3cn(CCOCCOCCOCC(=O)N[C@H](C(=O)N4C[C@H](O)C[C@H]4C(=O)NCc4ccc(-c5scnc5C)cc4)C(C)(C)C)nn3)C2)n2nccc2n1 [Compound 35.0]
> 10 µM	CCC(CC)c1cc(N[C@H]2CC[C@H](NCc3cn(CCOCCOCCOCCOCC(=O)N[C@H](C(=O)N4C[C@H](O)C[C@H]4C(=O)NCc4ccc(-c5scnc5C)cc4)C(C)(C)C)nn3)C2)n2nccc2n1 [Compound 36.0]
> 10 µM	CCC(CC)c1cc(N[C@H]2CC[C@H](NCc3cn(CCOCCOc4cc(-c5scnc5C)ccc4CNC(=O)[C@@H]4C[C@@H](O)CN4C(=O)[C@H](C(C)C)N4Cc5ccccc5C4=O)nn3)C2)n2nccc2n1 [Compound 37.0]
> 10 µM	CCC(CC)c1cc(N[C@H]2CC[C@H](NCc3cn(CCOCCOCCOc4cc(-c5scnc5C)ccc4CNC(=O)[C@@H]4C[C@@H](O)CN4C(=O)[C@H](C(C)C)N4Cc5ccccc5C4=O)nn3)C2)n2nccc2n1 [Compound 38.0]
> 10 µM	CCC(CC)c1cc(N[C@H]2CC[C@H](NCc3cn(CCOCCOCCOCCOc4cc(-c5scnc5C)ccc4CNC(=O)[C@@H]4C[C@@H](O)CN4C(=O)[C@H](C(C)C)N4Cc5ccccc5C4=O)nn3)C2)n2nccc2n1 [Compound 39.0]
> 10 µM	CCC(CC)c1cc(N[C@H]2CC[C@H](NCc3cn(CCOCCOCCOCCOCCOc4cc(-c5scnc5C)ccc4CNC(=O)[C@@H]4C[C@@H](O)CN4C(=O)[C@H](C(C)C)N4Cc5ccccc5C4=O)nn3)C2)n2nccc2n1 [Compound 40.0]
> 10 µM	CCC(CC)c1cc(N[C@H]2CC[C@H](NCC(=O)NCCCc3cn(CCOCCOCCOCC(=O)N[C@H](C(=O)N4C[C@H](O)C[C@H]4C(=O)NCc4ccc(-c5scnc5C)cc4)C(C)(C)C)nn3)C2)n2ncc(Cl)c2n1 [Compound 42.0]
> 10 µM	CCC(CC)c1cc(N[C@H]2CC[C@H](NCC(=O)NCCCc3cn(CCOCC(=O)N[C@H](C(=O)N4C[C@H](O)C[C@H]4C(=O)NCc4ccc(-c5scnc5C)cc4)C(C)(C)C)nn3)C2)n2ncc(Cl)c2n1 [Compound 43.0]
> 10 µM	CCC(CC)c1cc(N[C@H]2CC[C@H](NCC(=O)NCCCc3cn(CCOCCOCC(=O)N[C@H](C(=O)N4C[C@H](O)C[C@H]4C(=O)NCc4ccc(-c5scnc5C)cc4)C(C)(C)C)nn3)C2)n2ncc(Cl)c2n1 [Compound 44.0]

biological target: T1, CDK9; test: CDK9 degradation by HiBit assay, NCIH1048 cells; type: cell-based; settings: NCIH1048 cells with endogenously tagged N-terminal CDK9-HiBit, 24 hours incubation; read-out: HiBit-NCIH1048.3 DC50
Procedure: as §1

DC50	SMILES
< 1000 nM	CCC(CC)c1cc(N[C@H]2CC[C@H](NCC(=O)NCCOCCOCCOCCNc3cccc4c3C(=O)N(C3CCC(=O)NC3=O)C4=O)C2)n2nccc2n1 (stereo partly drawn) [Compound 5.0, N-[2-[2-[2-[2-[[2-(2,6-dioxo-3-piperidyl)-1,3-dioxo-isoindolin-4-yl]amino]ethoxy]ethoxy]ethoxy]ethyl]-2-[[(1S,3S)-3-[[5-(1-ethylpropyl)pyrazolo[1,5-a]pyrimidin-7-yl]amino]cyclopentyl]amino]acetamide]
< 100 nM	CCC(CC)c1cc(N[C@H]2CC[C@H](NCC(=O)NCCOCCOCCOCCNc3cccc4c3C(=O)N(C3CCC(=O)NC3=O)C4=O)C2)n2ncc(Cl)c2n1 (stereo partly drawn) [Compound 6.0, N-[2-[2-[2-[2-[[2-(2,6-dioxo-3-piperidyl)-1,3-dioxo-isoindolin-4-yl]amino]ethoxy]ethoxy]ethoxy]ethyl]-2-[[(1S,3S)-3-[[3-chloro-5-(1-ethylpropyl)pyrazolo[1,5-a]pyrimidin-7-yl]amino]cyclopentyl]amino]acetamide]
< 100 nM	C/C=C(\CC)c1cc(N[C@H]2CC[C@H](NCC(=O)N3CCN(CCCNc4cccc5c4C(=O)N(C4CCC(=O)NC4=O)C5=O)CC3)C2)n2nccc2n1 (stereo partly drawn) [Compound 21.0, 2-(2,6-dioxo-3-piperidyl)-4-[3-[4-[2-[[(1S,3S)-3-[[5-[(E)-1-ethylprop-1-enyl]pyrazolo[1,5-a]pyrimidin-7-yl]amino]cyclopentyl]amino]acetyl]piperazin-1-yl]propylamino]isoindoline-1,3-dione]
< 100 nM	CCC(CC)c1cc(N[C@H]2CC[C@H](NCC(=O)N3CCN(CCCCNc4cccc5c4C(=O)N(C4CCC(=O)NC4=O)C5=O)CC3)C2)n2ncc(Cl)c2n1 (some centres unmarked) [Compound 45.0]
< 100 nM	CCC(CC)c1cc(N[C@H]2CC[C@H](NCC(=O)N3CCN(CCCCNc4cccc5c4C(=O)N(C4CCC(=O)NC4=O)C5=O)CC3)C2)n2nccc2n1 (some centres unmarked) [Compound 46.0]
< 100 nM	CCC(CC)c1cc(N[C@H]2CC[C@H](NCC(=O)N3CCN(CCNc4cccc5c4C(=O)N(C4CCC(=O)NC4=O)C5=O)CC3)C2)n2nccc2n1 (some centres unmarked) [Compound 47.0]
